Laboratory results published in US9402398B2, “Herbicidal compounds” (SYNGENTA PARTICIPATIONS AG, priority 2012, dated 2016).

Columns and labels:
Assay type in all cases: in vivo
[1] = tested on: Alopecurus myosuroides (ALOMY); assay: Herbicidal glasshouse test, post-emergence; conditions: post-emergence (sprayed after 8 days cultivation), 1000 g/h, evaluated after 13 days
Method: (§1) Seeds of a variety of test species are sown in standard soil in pots (Alopecurus myosuroides (ALOMY), Setaria faberi (SETFA), Echinochloa crus-galli (ECHCG), Solanum nigrum (SOLNI), Amaranthus retoflexus (AMARE), Ipomoea hederacea (IPOHE)). After cultivation for one day (pre-emergence) or after 8 days cultivation (post-emergence) under controlled conditions in a glasshouse (at 24/16° C., day/night; 14 hours light; 65% humidity), the plants are sprayed with an aqueous spray solution derived from the formulation of the technical active ingredient in acetone/water (50:50) solution containing 0.5% Tween 20 (polyoxyethelyene sorbitan monolaurate, CAS RN 9005-64-5). Compounds are applied at 1000 g/h. The test plants are then grown in a glasshouse under controlled conditions in a glasshouse (at 24/16° C., day/night; 14 hours light; 65% humidity) and watered twice daily. After 13 days for pre and post-emergence, the test is evaluated for the percentage damage caused to the plant. The biological activities are shown in the following table on a five point scale (5=80-100%; 4=60-79%; 3=40-59%; 2=20-39%; 1=0-19%).

[2] = tested on: Amaranthus retoflexus (AMARE); assay: Herbicidal glasshouse test, post-emergence; conditions: post-emergence (sprayed after 8 days cultivation), 1000 g/h, evaluated after 13 days
Method: as §1

[3] = tested on: Echinochloa crus-galli (ECHCG); assay: Herbicidal glasshouse test, post-emergence; conditions: post-emergence (sprayed after 8 days cultivation), 1000 g/h, evaluated after 13 days
Method: as §1

[4] = tested on: Ipomoea hederacea (IPOHE); assay: Herbicidal glasshouse test, post-emergence; conditions: post-emergence (sprayed after 8 days cultivation), 1000 g/h, evaluated after 13 days
Method: as §1

Setaria faberi (SETFA) [5] = assay: Herbicidal glasshouse test, post-emergence; conditions: post-emergence (sprayed after 8 days cultivation), 1000 g/h, evaluated after 13 days
Method: as §1

Solanum nigrum (SOLNI) [6] = assay: Herbicidal glasshouse test, post-emergence; conditions: post-emergence (sprayed after 8 days cultivation), 1000 g/h, evaluated after 13 days
Method: as §1

[7] = tested on: Alopecurus myosuroides (ALOMY); assay: Herbicidal glasshouse test, pre-emergence; conditions: pre-emergence (sprayed after cultivation for one day), 1000 g/h, evaluated after 13 days
Method: as §1

[8] = tested on: Amaranthus retoflexus (AMARE); assay: Herbicidal glasshouse test, pre-emergence; conditions: pre-emergence (sprayed after cultivation for one day), 1000 g/h, evaluated after 13 days
Method: as §1

[9] = tested on: Echinochloa crus-galli (ECHCG); assay: Herbicidal glasshouse test, pre-emergence; conditions: pre-emergence (sprayed after cultivation for one day), 1000 g/h, evaluated after 13 days
Method: as §1

[10] = tested on: Ipomoea hederacea (IPOHE); assay: Herbicidal glasshouse test, pre-emergence; conditions: pre-emergence (sprayed after cultivation for one day), 1000 g/h, evaluated after 13 days
Method: as §1

Setaria faberi (SETFA) [11] = assay: Herbicidal glasshouse test, pre-emergence; conditions: pre-emergence (sprayed after cultivation for one day), 1000 g/h, evaluated after 13 days
Method: as §1

Solanum nigrum (SOLNI) [12] = assay: Herbicidal glasshouse test, pre-emergence; conditions: pre-emergence (sprayed after cultivation for one day), 1000 g/h, evaluated after 13 days
Method: as §1

Row | Structure (SMILES) | percentage damage caused to the plant, five point scale, POST Application ALOMY [1] | percentage damage caused to the plant, five point scale, POST Application AMARE [2] | percentage damage caused to the plant, five point scale, POST Application ECHCG [3] | percentage damage caused to the plant, five point scale, POST Application IPOHE [4] | percentage damage caused to the plant, five point scale, POST Application SETFA (Setaria faberi (SETFA) [5]) | percentage damage caused to the plant, five point scale, POST Application SOLNI (Solanum nigrum (SOLNI) [6]) | percentage damage caused to the plant, five point scale, PRE Application ALOMY [7] | percentage damage caused to the plant, five point scale, PRE Application AMARE [8] | percentage damage caused to the plant, five point scale, PRE Application ECHCG [9] | percentage damage caused to the plant, five point scale, PRE Application IPOHE [10] | percentage damage caused to the plant, five point scale, PRE Application SETFA (Setaria faberi (SETFA) [11]) | percentage damage caused to the plant, five point scale, PRE Application SOLNI (Solanum nigrum (SOLNI) [12])
1 | Cc1cc(C(=O)Nc2nnnn2C)c(=O)n(-c2ccccc2)n1 [Compound 1.001] | 5 (5=80-100%) | 4 (4=60-79%) | 5 (5=80-100%) | 4 (4=60-79%) | 3 (3=40-59%) | 5 (5=80-100%) | 5 (5=80-100%) | 5 (5=80-100%) | 4 (4=60-79%) | 3 (3=40-59%) | 3 (3=40-59%) | 5 (5=80-100%)
2 | Cc1cc(C(=O)Nc2nnnn2C)c(=O)n(-c2ccccc2C)n1 [Compound 1.003] | 4 (4=60-79%) | 5 (5=80-100%) | 5 (5=80-100%) | 5 (5=80-100%) | 3 (3=40-59%) | 5 (5=80-100%) | 2 (2=20-39%) | 5 (5=80-100%) | 5 (5=80-100%) | 4 (4=60-79%) | 3 (3=40-59%) | 4 (4=60-79%)
3 | COc1ccccc1-n1nc(C)cc(C(=O)Nc2nnnn2C)c1=O [Compound 1.004] | 5 (5=80-100%) | 5 (5=80-100%) | 5 (5=80-100%) | 5 (5=80-100%) | 5 (5=80-100%) | 5 (5=80-100%) | 5 (5=80-100%) | 5 (5=80-100%) | 5 (5=80-100%) | 4 (4=60-79%) | 5 (5=80-100%) | 5 (5=80-100%)
4 | Cc1cc(C(=O)Nc2nnnn2C)c(=O)n(-c2cc(Cl)cc(Cl)c2)n1 [Compound 1.005] | 5 (5=80-100%) | 5 (5=80-100%) | 5 (5=80-100%) | 5 (5=80-100%) | 5 (5=80-100%) | 5 (5=80-100%) | 5 (5=80-100%) | 5 (5=80-100%) | 5 (5=80-100%) | 5 (5=80-100%) | 5 (5=80-100%) | 5 (5=80-100%)
5 | Cc1cc(C(=O)Nc2nnnn2C)c(=O)n(-c2ccc(Br)cc2)n1 [Compound 1.006] | 5 (5=80-100%) | 5 (5=80-100%) | 5 (5=80-100%) | 4 (4=60-79%) | 5 (5=80-100%) | 5 (5=80-100%) | 5 (5=80-100%) | 5 (5=80-100%) | 5 (5=80-100%) | 4 (4=60-79%) | 5 (5=80-100%) | 5 (5=80-100%)
6 | Cc1cc(C(=O)Nc2nnnn2C)c(=O)n(-c2cccc(Br)c2)n1 [Compound 1.007] | 5 (5=80-100%) | 5 (5=80-100%) | 5 (5=80-100%) | 5 (5=80-100%) | 5 (5=80-100%) | 5 (5=80-100%) | 5 (5=80-100%) | 5 (5=80-100%) | 5 (5=80-100%) | 3 (3=40-59%) | 5 (5=80-100%) | 5 (5=80-100%)
7 | C=Cc1ccc(-n2nc(C)cc(C(=O)Nc3nnnn3C)c2=O)cc1 [Compound 1.008] | 5 (5=80-100%) | 5 (5=80-100%) | 5 (5=80-100%) | 5 (5=80-100%) | 5 (5=80-100%) | 5 (5=80-100%) | 5 (5=80-100%) | 5 (5=80-100%) | 4 (4=60-79%) | 2 (2=20-39%) | 5 (5=80-100%) | 5 (5=80-100%)
8 | Cc1cc(C(=O)Nc2nnnn2C)c(=O)n(-c2ccc(C#N)cn2)n1 [Compound 1.022] | 5 (5=80-100%) | 5 (5=80-100%) | 5 (5=80-100%) | 4 (4=60-79%) | 5 (5=80-100%) | 5 (5=80-100%) | – | – | – | – | – | –
